In this test the target is T1, human μ opiate receptor (Homo sapiens, UniProt P35372).
T1 construct: purchased PerkinElmer Life Sciences, Zaventem, Belgium RB-HOM; host or cells: CHO-K1 cells (membrane preparation)
T1 sequence (P35372 whole entry): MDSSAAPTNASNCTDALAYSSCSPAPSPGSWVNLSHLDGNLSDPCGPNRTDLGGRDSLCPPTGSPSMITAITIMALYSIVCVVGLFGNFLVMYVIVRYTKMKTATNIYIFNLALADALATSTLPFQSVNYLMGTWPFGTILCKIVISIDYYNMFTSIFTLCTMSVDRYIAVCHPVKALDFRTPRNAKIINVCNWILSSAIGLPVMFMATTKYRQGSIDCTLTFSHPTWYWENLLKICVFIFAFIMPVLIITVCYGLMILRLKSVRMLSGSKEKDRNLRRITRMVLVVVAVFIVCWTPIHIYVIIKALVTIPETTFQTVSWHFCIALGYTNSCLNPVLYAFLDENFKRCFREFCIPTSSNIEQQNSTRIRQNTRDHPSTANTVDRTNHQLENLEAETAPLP
In words: Affinity for the human μ opiate receptor ([3H]-naloxone displacement, CHO-K1 receptor membrane preparation, SPA). The following applies: test concentration of 1 μM; read-out: μ (binding on the μ opioid receptor, % inhibition). It is filed as binding. In a few lines:
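SPA, CHO-K1 hμ membranes; 1 nmol/l [3H]-naloxone; Tris-HCl 50 mmol/l + 0.06% BSA; 90 min RT; NSB with 100 μmol/l naloxone; β-counting. Readout: % inhibition of specific binding at 1 μM test compound.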
With `COc1ccc(S(=O)(=O)N2CCCCC2COCC(=O)NCC2CCC(C(c3cccc(F)c3)N(C)C)CC2)c(OC)c1` (stereo not drawn) [Example 151, 2-((1-(2,4-dimethoxyphenylsulfonyl)piperidin-2-yl)methoxy)-N-((4-((dimethylamino)(3-fluorophenyl)methyl)cyclohexyl)methyl)acetamide], the inhibition at 1 µM is 90%.

In the case of `COc1cc(C)c(S(=O)(=O)N(C)CCOCC(=O)NCC2CCC(C(c3ccccc3)N(C)C)CC2)c(C)c1` (stereo not drawn) [Example 137, N-((4-((dimethylamino)(phenyl)methyl)cyclohexyl)methyl)-2-(2-(4-methoxy-N,2,6-trimethylphenylsulfonamido)ethoxy)acetamide], the inhibition at 1 µM is 89%.

As to `CN(C)C(c1ccccc1)C1CCC(CNC(=O)COC2CCN(S(=O)(=O)c3ccccc3)C2)CC1` (stereo not drawn) [Example 195, N-((4-((dimethylamino)(phenyl)methyl)cyclohexyl)methyl)-2-(1-(phenylsulfonyl)pyrrolidin-3-yloxy)acetamide], the inhibition at 1 µM is 83%.

`CN(C)C(c1cccs1)C1CCC(CCNC(=O)COCCN(C)S(=O)(=O)c2cccc(C(F)(F)F)c2)CC1` (stereo not drawn) [Example 32, N-(2-(4-((dimethylamino)(thiophen-2-yl)methyl)cyclohexyl)ethyl)-2-(2-(N-methyl-3-(trifluoromethyl)phenylsulfonamido)ethoxy)acetamide]: the inhibition at 1 µM amounted to 97%.

On to `CN(C)C(c1cccs1)C1CCC(NC(=O)COC2CCN(S(=O)(=O)c3ccccc3)C2)CC1` (stereo not drawn) [Example 194, N-(4-((dimethylamino)(thiophen-2-yl)methyl)cyclohexyl)-2-(1-(phenylsulfonyl)pyrrolidin-3-yloxy)acetamide], for which the inhibition at 1 µM turned out to be 83%.

Take `CN(C)C(c1cccc(F)c1)C1CCC(CCNC(=O)COCC2CCCCN2S(=O)(=O)c2ccc(Cl)c(Cl)c2)CC1` (stereo not drawn) [Example 147, 2-((1-(3,4-dichlorophenylsulfonyl)piperidin-2-yl)methoxy)-N-(2-(4-((dimethylamino)(3-fluorophenyl)methyl)cyclohexyl)ethyl)acetamide]: the inhibition at 1 µM came to 90%.

As to `CN(C)C(c1cccs1)C1CCC(NC(=O)COCCN(Cc2ccccc2)S(=O)(=O)c2ccccc2)CC1` (stereo not drawn) [Example 161, 2-(2-(N-benzylphenylsulfonamido)ethoxy)-N-(4-((dimethylamino)(thiophen-2-yl)methyl)cyclohexyl)acetamide], the inhibition at 1 µM came out at 86%.

As to `COc1ccc(S(=O)(=O)N2CCCC2COCC(=O)NC2CCC(C(c3ccccc3)N(C)C)CC2)cc1` (stereo not drawn) [Example 182, N-(4-((dimethylamino)(phenyl)methyl)cyclohexyl)-2-((1-(4-methoxyphenylsulfonyl)pyrrolidin-2-yl)methoxy)acetamide], the inhibition at 1 µM was 82%.

For the compound `CN(C)C(c1cccs1)C1CCC(CCNC(=O)COCCN(C)S(=O)(=O)c2ccc(Cl)cc2Cl)CC1` (stereo not drawn) [Example 9, 2-(2-(2,4-dichloro-N-methylphenylsulfonamido)ethoxy)-N-(2-(4-((dimethylamino) (thiophen-2-yl)methyl)cyclohexyl)ethyl)acetamide], the inhibition at 1 µM was determined as 98%.

`COc1ccc(S(=O)(=O)N2CCC(OCC(=O)NCC3CCC(C(c4ccccc4)N(C)C)CC3)C2)cc1OC` (stereo not drawn) [Example 22, 2-(1-(3,4-dimethoxyphenylsulfonyl)pyrrolidin-3-yloxy)-N-((4-((dimethylamino)(phenyl)methyl)cyclohexyl)methyl)acetamide]: the inhibition at 1 µM is 97%.

`Cc1cc(C)c(S(=O)(=O)N2CCC(OCC(=O)NCC3CCC(C(c4cccc(F)c4)N(C)C)CC3)C2)c(C)c1` (stereo not drawn) [Example 141, N-((4-((dimethylamino)(3-fluorophenyl)methyl)cyclohexyl)methyl)-2-(1-(mesitylsulfonyl)pyrrolidin-3-yloxy)acetamide]: the inhibition at 1 µM is 88%.

Turning to `CN(C)C(c1cccs1)C1CCC(NC(=O)COC2CCN(S(=O)(=O)c3cccc(C(F)(F)F)c3)C2)CC1` (stereo not drawn) [Example 11, N-(4-((dimethylamino)(thiophen-2-yl)methyl)cyclohexyl)-2-(1-(3-(trifluoromethyl)phenylsulfonyl)pyrrolidin-3-yloxy)acetamide], the inhibition at 1 µM is 98%.

Regarding `CN(C)C(c1ccccc1)C1CCC(CNC(=O)COCC2CCCCN2S(=O)(=O)c2ccc(Cl)c(Cl)c2)CC1` (stereo not drawn) [Example 17, 2-((1-(3,4-dichlorophenylsulfonyl)piperidin-2-yl)methoxy)-N-((4-((dimethylamino)(phenyl)methyl)cyclohexyl)methyl)acetamide], the inhibition at 1 µM was 98%.

With `COc1cc(C)c(S(=O)(=O)N2CCC(OCC(=O)NCC3CCC(C(c4ccccc4)N(C)C)CC3)CC2)c(C)c1C` (stereo not drawn) [Example 143, N-((4-((dimethylamino)(phenyl)methyl)cyclohexyl)methyl)-2-(1-(4-methoxy-2,3,6-trimethylphenylsulfonyl)piperidin-4-yloxy)acetamide], the inhibition at 1 µM amounted to 89%.

On to `COc1ccc(S(=O)(=O)N2CCCCC2COCC(=O)NCCC2CCC(C(c3cccs3)N(C)C)CC2)cc1` (stereo not drawn) [Example 30, N-(2-(4-((dimethylamino)(thiophen-2-yl)methyl)cyclohexyl)ethyl)-2-((1-(4-methoxyphenylsulfonyl)piperidin-2-yl)methoxy)acetamide], for which the inhibition at 1 µM stood at 97%.

For the compound `CN(C)C(c1cccc(F)c1)C1CCC(CNC(=O)COCCN(C)S(=O)(=O)c2c(Cl)cc(Cl)cc2Cl)CC1` (stereo not drawn) [Example 188, N-((4-((dimethylamino)(3-fluorophenyl)methyl)cyclohexyl)methyl)-2-(2-(2,4,6-trichloro-N-methylphenylsulfonamido)ethoxy)acetamide], the inhibition at 1 µM was determined as 87%.

As for `COc1ccc(S(=O)(=O)N(C)CCOCC(=O)NCC2CCC(C(c3cccs3)N(C)C)CC2)cc1` (stereo not drawn) [Example 142, N-((4-((dimethylamino)(thiophen-2-yl)methyl)cyclohexyl)methyl)-2-(2-(4-methoxy-N-methylphenylsulfonamido)ethoxy)acetamide], the inhibition at 1 µM turned out to be 89%.

Consider `COc1ccc(S(=O)(=O)N2Cc3ccccc3CC2COCC(=O)NCC2CCC(C(c3ccccc3)N(C)C)CC2)cc1` (stereo not drawn) [Example 19, N-((4-((dimethylamino)(phenyl)methyl)cyclohexyl)methyl)-2-((2-(4-methoxyphenylsulfonyl)-1,2,3,4-tetrahydroisoquinolin-3-yl)methoxy)acetamide], for which the inhibition at 1 µM was 98%.

Regarding `COc1cc(C)c(S(=O)(=O)N2CCC(OCC(=O)NCCC3CCC(C(c4cccs4)N(C)C)CC3)C2)c(C)c1` (stereo not drawn) [Example 199, N-(2-(4-((dimethylamino)(thiophen-2-yl)methyl)cyclohexyl)ethyl)-2-(1-(4-methoxy-2,6-dimethylphenylsulfonyl)pyrrolidin-3-yloxy)acetamide], the inhibition at 1 µM amounted to 87%.

On to `COc1cc(C)c(S(=O)(=O)N2CCC(OCC(=O)NC3CCC(C(c4cccc(F)c4)N(C)C)CC3)C2)c(C)c1C` (stereo not drawn) [Example 189, N-(4-((dimethylamino)(3-fluorophenyl)methyl)cyclohexyl)-2-(1-(4-methoxy-2,3,6-trimethylphenylsulfonyl)pyrrolidin-3-yloxy)acetamide], for which the inhibition at 1 µM turned out to be 84%.

In the case of `COc1ccc(S(=O)(=O)N2CCCCC2COCC(=O)NCC2CCC(C(c3ccccc3)N(C)C)CC2)cc1OC` (stereo not drawn) [Example 150, 2-((1-(3,4-Dimethoxyphenylsulfonyl)piperidin-2-yl)methoxy)-N-((4-((dimethylamino)(phenyl)methyl)cyclohexyl)methyl)acetamide], the inhibition at 1 µM was 86%.

The values above are taken from US8106055B2, “Substituted amide compounds” (Gruenenthal GmbH, priority 2007, dated 2012).
